Format in all cases: functional, cell-based
In experiment [1] the test system is MDA-MB-435. The experiment can be described thus: Cytotoxicity against human MDA-MB-435 cells by SRB assay. A general note: Sulforhodamine B stains cellular protein and so reports cell mass.
The subject of experiment [2] is BGC-823. The experiment can be described thus: Cytotoxicity against human BGC823 cells by SRB assay.
In experiment [3] the test system is HL-60. The experiment can be described thus: Cytotoxicity against human HL60 cells by MTT assay. A general note: Tetrazolium dyes change colour on reduction, which living cells bring about.

≈ marks a conversion by molar mass, not a printed value.

For `C=C1C(=O)O[C@@H]2[C@@H]1C[C@H](O)[C@@](O)(CO)CC/C=C(\C)CC/C=C(\C)[C@@H]2O` [SINULAROLIDE A], the 50% inhibitory concentration (IC50) in experiment [1], in experiment [2] and in experiment [3] was above 10 µg/mL in each case.

As for `C=C1C(=O)O[C@@H]2[C@@H]1C[C@H]1O[C@]1(CO)CC/C=C(\C)CC/C=C(\C)[C@H]2O` [SINULAROLIDE B], the IC50 (in general, the concentration that inhibits the measured activity by half) was determined as 8 µg/mL (≈ 23 µM) in experiment [1], 6.3 µg/mL (≈ 18.1 µM) in experiment [2] and 5.2 µg/mL (≈ 14.9 µM) in experiment [3].

On to `C=C1C(=O)O[C@@H]2[C@@H]1C[C@H]1O[C@]1(CO)CC/C=C(\C)CC/C=C(\C)[C@@H]2O` [SINULAROLIDE C], for which the IC50 in experiment [1] was determined as 7.7 µg/mL (≈ 22.1 µM); in experiment [2], 5.2 µg/mL (≈ 14.9 µM); in experiment [3], 5.1 µg/mL (≈ 14.6 µM).

For `C=C1C(=O)O[C@H]2C/C(C)=C/CC/C(C)=C/CC[C@@]3(CO)O[C@@H]3C[C@H]12` [SINULAROLIDE D], the figures for the IC50 in experiment [1], in experiment [2] and in experiment [3] were above 10 µg/mL, 6.1 µg/mL (≈ 18.3 µM) and 2.3 µg/mL (≈ 6.92 µM), respectively.

With `C=C1C(=O)O[C@@H]2[C@@H]1C[C@@H]1O[C@]1(C)CC/C=C(\C)CC/C=C(\C)[C@@H]2O` [SINULAROLIDE E], the IC50 in experiment [1] worked out at 2.1 µg/mL (≈ 6.32 µM); in experiment [2], 8.6 µg/mL (≈ 25.9 µM); in experiment [3] it was 6 µg/mL (≈ 18 µM).

These data come from ChEMBL document CHEMBL1158749, “Cytotoxic cembranoid diterpenes from a soft coral Sinularia gibberosa” (J Nat Prod, 2005).
